Values quoted from earlier work in US20210319872A1, “DRUG AND DEVICE COMBINATION PRODUCTS WITH IMPROVED SAFETY AND EFFICACY PROFILES” (priority 2016, published 2021).
Like-named read-outs stand apart in the source and are kept apart here.

SMILES: Cc1ccc(-c2nc3ccc(C)cn3c2CC(=O)N(C)C)cc1 [Ambien (zolpidem)]
- Allergic reaction (in vivo): Immunologic: Allergic reaction (4%)
- Anaphylaxis (in vivo): Immunologic: Anaphylaxis (rare)
- Angioedema (in vivo): Other: Angioedema (rare)
- Chest pain (in vivo): Cardiovascular: Chest pain (1%), Tachycardia (0.1% to 1%)
- Diarrhea (in vivo): Gastrointestinal: Diarrhea (1% to 3%), Nausea (1% to 7%)
- Dizziness (in vivo): Neurologic: Dizziness (1% to 23.5%), Drugged state (3%),
- Drugged state (in vivo): Neurologic: Dizziness (1% to 23.5%), Drugged state (3%),
- Fatigue (in vivo): Other: Fatigue (0.1% to 3%)
- Headache (in vivo): Headache (1% to 19%), Somnolence (2% to 15%)
- Nausea (in vivo): Gastrointestinal: Diarrhea (1% to 3%), Nausea (1% to 7%)
- Serious side effect, Neurologic (in vivo): Neurologic: Hepatic encephalopathy
- Somnolence (in vivo): Headache (1% to 19%), Somnolence (2% to 15%)
- Tachycardia (in vivo): Cardiovascular: Chest pain (1%), Tachycardia (0.1% to 1%)
- Visual disturbance (in vivo): Ophthalmic: Visual disturbance (3%)

SMILES: CN(C)CCCC1(c2ccc(F)cc2)OCc2cc(C#N)ccc21 (stereo not shown) [Citalopram (Celexa)]
- Agitation (in vivo): Psychiatric: Agitation (3% to 10%)
- Cerebrovascular accident (in vivo): Neurologic: Cerebrovascular accident (0.1% to less than 1%)
- Constipation (in vivo): Gastrointestinal: Constipation (13%), Diarrhea (8%), Nausea (20%
- Diaphoresis (in vivo): Dermatologic: Diaphoresis (5% to 18%)
- Diarrhea (in vivo): Gastrointestinal: Constipation (13%), Diarrhea (8%), Nausea (20%
- Disorder of ejaculation (in vivo): Reproductive: Disorder of ejaculation (6.1%)
- Dizziness (in vivo): Neurologic: Dizziness (14%), Headache (18%), Insomnia (15%),
- Fatigue (in vivo): Other: Fatigue (5%)
- Headache (in vivo): Neurologic: Dizziness (14%), Headache (18%), Insomnia (15%),
- Insomnia (in vivo): Neurologic: Dizziness (14%), Headache (18%), Insomnia (15%),
- Myocardial infarction (in vivo): Cardiovascular: Myocardial infarction (0.1% to 1%), Prolonged QT
- Nausea (in vivo): Gastrointestinal: Constipation (13%), Diarrhea (8%), Nausea (20%
- Prolonged QT interval (in vivo): interval (0.5% to 1.9%), Torsades de pointes
- Sedated (in vivo): Sedated (15%), Somnolence (18%), Tremor (8% to 16%)
- Somnolence (in vivo): Sedated (15%), Somnolence (18%), Tremor (8% to 16%)
- Tremor (in vivo): Sedated (15%), Somnolence (18%), Tremor (8% to 16%)
- Vomiting (in vivo): to 21%), Vomiting (4% to 20%), Xerostomia (17% to 20%)
- Xerostomia (in vivo): to 21%), Vomiting (4% to 20%), Xerostomia (17% to 20%)

SMILES: CCN(C(C)=O)c1cccc(-c2ccnc3c(C#N)cnn23)c1 [Sonata (zaleplon)]
- Anaphylaxis (in vivo): Immunologic: Anaphylaxis (rare)
- Angioedema (in vivo): Other: Angioedema (rare)
- Depression (in vivo): Depression (at least 1%), Suicidal behavior, Suicidal thoughts
- Dizziness (in vivo): Neurologic: Dizziness (7% to 9%), Headache (30% to 42%)
- Drug withdrawal seizure (in vivo): Neurologic: Drug withdrawal seizure (rare)
- Headache (in vivo): Neurologic: Dizziness (7% to 9%), Headache (30% to 42%)

SMILES: COc1ccccc1Oc1c(NS(=O)(=O)c2ccc(C(C)(C)C)cc2)nc(-c2ncccn2)nc1OCCO [Tracleer]
- Decreased hemoglobin (in vivo): Hematologic: Decreased hemoglobin (6%)
- Decreased hemoglobin (Severe) (in vivo): Hematologic: Decreased hemoglobin (Severe) (3%)
- Headache (in vivo): Neurologic: Headache (up to 24%)
- Hypotension (in vivo): 7%
- Increased liver aminotransferase level (in vivo): ≤ 11%
- Palpitations (in vivo): 5%
- Serious side effect, Other (listed without frequency): Other: Angioedema

SMILES: O=C1CCc2ccc(OCCCCN3CCN(c4cccc(Cl)c4Cl)CC3)cc2N1 [Aripiprazole (Abilify)]
- Akathisia (in vivo): Neurologic: Akathisia (2% to 25%), Dizziness (4% to 10%),
- Angioedema (in vivo): Other: Angioedema (0.1% to less than 1%), Increased body
- Anxiety (in vivo): Psychiatric: Anxiety (4% to 17%), Restlessness (2% to 12%)
- Cardiorespiratory arrest (in vivo): Cardiovascular: Cardiorespiratory arrest (0.1% to 1%),
- Cardiorespiratory failure (in vivo): Cardiorespiratory failure (0.1% to 1%), Myocardial infarction
- Constipation (in vivo): Gastrointestinal: Constipation (5% to 11%), Nausea (8% to 15%),
- Diabetic ketoacidosis (in vivo): Endocrine metabolic: Diabetic ketoacidosis (Less than 0.1%)
- Dizziness (in vivo): Neurologic: Akathisia (2% to 25%), Dizziness (4% to 10%),
- Extrapyramidal sign (in vivo): Extrapyramidal sign (2% to 27.3%), Headache (10% to 27%),
- Fatigue (in vivo): Other: Fatigue (2% to 17%)
- Headache (in vivo): Extrapyramidal sign (2% to 27.3%), Headache (10% to 27%),
- Leukopenia (in vivo): Hematologic: Agranulocytosis, Leukopenia (Less than 1%),
- Myocardial infarction (in vivo): (0.1% to 1%), Prolonged QT interval (0.1% to 1%)
- Nausea (in vivo): Gastrointestinal: Constipation (5% to 11%), Nausea (8% to 15%),
- Neutropenia (in vivo): Neutropenia (Less than 1%)
- Pancreatitis (in vivo): Gastrointestinal: Pancreatitis (Less than 0.1%)
- Prolonged QT interval (in vivo): (0.1% to 1%), Prolonged QT interval (0.1% to 1%)
- Restlessness (in vivo): Psychiatric: Anxiety (4% to 17%), Restlessness (2% to 12%)
- Rhabdomyolysis (in vivo): Musculoskeletal: Rhabdomyolysis (Less than 0.1%)
- Sedated (in vivo): Insomnia (8% to 18%), Sedated (3% to 21%), Somnolence (6% to
- Seizure (in vivo): Neurologic: Cerebrovascular accident, Seizure (Up to 0.3%),
- Tremor (in vivo): 26.3%), Tremor (2% to 11.8%)
- Vomiting (in vivo): Vomiting (3% to 11%)

SMILES: CCOC(=O)[C@H](CCc1ccccc1)N[C@@H](C)C(=O)N1Cc2ccccc2C[C@H]1C(=O)O [Quinapril (Accupril)]
- Chest pain (in vivo): Cardiovascular: Chest pain (2.4%), Hypotension (2.9%)
- Cough (in vivo): Respiratory: Cough (2% to 4.3%)
- Dizziness (in vivo): Neurologic: Dizziness (3.9% to 7.7%), Headache (1.7% to 6.9%)
- Fatigue (in vivo): Other: Fatigue (2.6%)
- Headache (in vivo): Neurologic: Dizziness (3.9% to 7.7%), Headache (1.7% to 6.9%)
- Hypotension (in vivo): Cardiovascular: Chest pain (2.4%), Hypotension (2.9%)
- Nausea and vomiting (in vivo): Gastrointestinal: Nausea and vomiting (1.4% to 2.4%)
- Serum blood urea nitrogen raised (in vivo): Renal: Serum blood urea nitrogen raised (2% to 8%), Serum
- Serum creatinine raised (in vivo): creatinine raised (2% to 11%)

SMILES: C[C@@H]1CCN(C(=O)CC#N)C[C@@H]1N(C)c1ncnc2[nH]ccc12 [Xeljanz (Jak Compounds)]
- Decreased lymphocyte count (in vivo): Hematologic: Anemia, Decreased lymphocyte count (0.04%),
- Headache (in vivo): Neurologic: Headache (3.4% to 4.3%)
- Increased HDL level (in vivo): Endocrine metabolic: Increased HDL level (10% to 12%), Raised
- Infectious disease (in vivo): Immunologic: Infectious disease (20% to 22%), Opportunistic
- Nasopharyngitis (in vivo): Respiratory: Nasopharyngitis (2.8% to 3.8%), Upper respiratory
- Neutropenia (in vivo): Neutropenia (0.07%)
- Post-transplant lymphoproliferative disorder, Epstein Barr virus associated (in vivo): Barr virus associated (2.3%), Tuberculosis
- Raised low density lipoprotein cholesterol (in vivo): low density lipoprotein cholesterol (15% to 19%)
- Serious side effect, Dermatologic (in vivo): Dermatologic: Skin cancer, Non-melanoma
- Serious side effect, Gastrointestinal (in vivo): Gastrointestinal: Gastrointestinal perforation
- Serious side effect, Hematologic (in vivo): Hematologic: Anemia, Decreased lymphocyte count (0.04%),
- Serious side effect, Hepatic (in vivo): Hepatic: Injury of liver
- Serious side effect, Other (in vivo): Other: Cancer
- Upper respiratory infection (in vivo): infection (3.8% to 4.5%)
- Urinary tract infectious disease (in vivo): Renal: Urinary tract infectious disease (2%)

SMILES: CN1CCc2nc(C(=O)N[C@@H]3C[C@@H](C(=O)N(C)C)CC[C@@H]3NC(=O)C(=O)Nc3ccc(Cl)cn3)sc2C1 [Edoxaban (Savaysa)]
- Bleeding, Major (in vivo): 3.1%; DVT or pulmonary embolism, 1.4%)
- Hemorrhagic cerebral infarction (in vivo): fibrillation, 0.3%), Intracranial hemorrhage (Nonvalvular atrial
- Interstitial lung disease (in vivo): 0.2%)
- Intracranial hemorrhage (in vivo): fibrillation, 0.5%; DVT or pulmonary embolism, 0.1%)
- Liver function tests abnormal (in vivo): fibrillation, 4.8%; DVT or pulmonary embolism, 7.8%)
- Rash (in vivo): Dermatologic: Rash (3.6% to 4.2%)

SMILES: CCOC(=O)[C@H](CCc1ccccc1)N[C@@H](C)C(=O)N1[C@H](C(=O)O)C[C@H]2CCCC[C@@H]21 [Trandolapril (Mavik)]
- Cardiogenic shock (in vivo): Cardiovascular: Cardiogenic shock (3.8%), Intermittent
- Cough (in vivo): Respiratory: Cough (1.9% to 35%)
- Dizziness (in vivo): Neurologic: Dizziness (1.3% to 23%)
- Hyperkalemia (in vivo): Endocrine metabolic: Hyperkalemia (0.3% to 5.3%)
- Hypotension (in vivo): Cardiovascular: Hypotension (0.6% to 11%), Syncope (5.9%)
- Indigestion (in vivo): Gastrointestinal: Indigestion (0.3% to 6.4%)
- Intermittent claudication (in vivo): claudication (3.8%)
- Serum blood urea nitrogen raised (in vivo): Renal: Serum blood urea nitrogen raised (9%)
- Syncope (in vivo): Cardiovascular: Hypotension (0.6% to 11%), Syncope (5.9%)

SMILES: CC1Cc2ccccc2N1NC(=O)c1ccc(Cl)c(S(N)(=O)=O)c1 (stereo not shown) [Indapamide (Lozol)]
- Dizziness (incidence) (in vivo): Neurologic: Asthenia, Dizziness (Greater than or equal to 5%),
- Headache (incidence) (in vivo): Headache (Greater than or equal to 5%), Lethargy, Numbness
- Hypokalemia (incidence) (in vivo): Endocrine metabolic: Hypokalemia (3% to 7%)

SMILES: N#Cc1ccc2[nH]cc(CCCCN3CCN(c4ccc5oc(C(N)=O)cc5c4)CC3)c2c1 [Viibryd]
- Serotonin syndrome (in vivo): 0.1%
- Serious side effect, Other (listed without frequency): Drug withdrawal

SMILES: CCOC(=O)C1=C(C)NC(C)=C(C(=O)OC)C1c1cccc(Cl)c1Cl (stereo not shown) [Felodipine (Plendil)]
- Flushing (in vivo): Dermatologic: Flushing (3.9% to 6.9%)
- Headache (in vivo): Neurologic: Headache (10.6% to 14.7%)
- Hypotension (in vivo): Cardiovascular: Angina, Hypotension (less than 0.5%), Myocardial
- Indigestion (in vivo): Gastrointestinal: Indigestion (0.5% to 3.9%)
- Peripheral edema (in vivo): Cardiovascular: Peripheral edema (2% to 17.4%)
- Upper respiratory infection (in vivo): Respiratory: Upper respiratory infection (0.7% to 3.9%)

SMILES: CN1CCN2c3ncccc3Cc3ccccc3C2C1 (stereo not shown) [Mirtazepine (Remeron)]
- ALT/SGPT level raised (in vivo): Hepatic: ALT/SGPT level raised (2%)
- Asthenia (in vivo): Neurologic: Asthenia (8%), Dizziness (7%), Somnolence (54%)
- Cirrhosis of liver (in vivo): Hepatic: Cirrhosis of liver (less than 0.1%)
- Constipation (in vivo): Gastrointestinal: Constipation (13%), Xerostomia (25%)
- Disturbance in thinking (in vivo): Psychiatric: Disturbance in thinking (3%)
- Dizziness (in vivo): Neurologic: Asthenia (8%), Dizziness (7%), Somnolence (54%)
- Grand mal seizure (in vivo): Neurologic: Grand mal seizure (less than 0.1%), Status epilepticus
- Increased appetite (in vivo): Endocrine metabolic: Increased appetite (17%), Serum triglycerides
- Serum triglycerides raised (in vivo): raised (increases to 500 mg/dL or greater: 6%), Weight gain (body
- Somnolence (in vivo): Neurologic: Asthenia (8%), Dizziness (7%), Somnolence (54%)
- Weight gain (in vivo): weight increase of 7% or greater: adults 7.5%; pediatrics 49%)
- Xerostomia (in vivo): Gastrointestinal: Constipation (13%), Xerostomia (25%)
